Laboratory results as given in patent US20240174649A1, “CULLIN-RING E3 UBIQUITIN LIGASE 4 INHIBITOR COMPOUNDS AND METHODS OF THEIR USE” (ICAHN SCHOOL OF MEDICINE AT MOUNT SINAI, priority 2021, published 2024).
Like-named read-outs stand apart in the source and are kept apart here. One block for each molecule: values may come before it.

Key:
ROC1-CUL1 = ROC1-CUL1 (Homo sapiens (Human), UniProt Q13616); test: Gel-based di-Ub synthesis; format: biochemical
Method: For the experiment shown in FIG. 7 and FIGS. 8A-B, the di-Ub synthesis reaction was carried out by preassembling the donor Ub mix. The donor Ub mixture (5 μl) contained 50 mM Tris HCl (pH 7.4), 5 mM MgCl2, 2 mM ATP, 0.5 mM DTT, 0.1 mg/mL BSA, 1 μM Ub-NC-I555, 0.1 μM E1, and 2 μM Cdc34b. The reaction was incubated for 5 min at 37° C. Compounds, in the amounts indicated, were added followed by the addition of ROC1-CUL1 (or related E3 subcomplex) in amounts as indicated and 10 μM PK-Ub (1-74) (as a receptor). The final volume was adjusted to 10 μl. The reaction was incubated for 10 min at 37° C.
For the experiments shown in FIG. 8C and FIG. 9, the reaction was assembled in a 10-μl mixture containing 50 mM Tris HCl (pH 7.4), 5 mM MgCl2, 0.5 mM DTT, 0.1 mg/mL BSA, 0.05 μM Ub-NC-I555, 2,5 μM PK-Ub (1-74), 0.1 μM E1, 1 μM Cdc34b, and 80 nM ROC1-CUL1 with or without compound. The reaction was initiated by the addition of 2 mM ATP. The products were separated by 4-20% SDS/PAGE and were visualized and quantified on a Typhoon FLA 9500 laser scanner (GE).

E3 CRL4^CRBN = E3 CRL4^CRBN (Homo sapiens (Human), UniProt Q13619); test: Lenalidomide-dependent ubiquitination of CK1α by CRL4^CRBN; format: biochemical; conditions: at 30 μM
Method: To prepare Flag-CK1α as a substrate for ubiquitination experiments described in FIGS. 2A-E, the expression vector (purchased from Addgene) was introduced to HEK-293T cells by transfection using Lipofectamine RNAIMAX (ThermoFisher) according to manufacturer's protocols. Cell extracts were prepared and the concentration of Flag-CK1α was determined using immunoblot analysis with purified GST-CK1α (Sigma) as a standard. Typically, 50-100 μl of extracts was used to attach to ˜15 μl of M2 beads (Sigma) at 4° C. for 2 hours. Unbound materials were removed by washing (first three times with a washing buffer containing 50 mM Tris-HCl, pH8.0, 1% Triton X-100, 0.5M NaCl, and then twice with buffer A plus 50 mM NaCl) and the resulting beads were used in the ubiquitination assay (15 μl). The concentration of Flag-CK1α was determined to be ˜100 nM.
Immobilized, Flag-CK1α-containing beads were initially incubated with a reaction mixture (10 μl) containing 50 mM Tris-HCl (pH7.4), 0.5 mM DTT, 0.1 mg/ml of BSA, 5 mM MgCl2, 100 nM CRL4^CRBN, 1 μM Lenalidomide (Selleckchem), 1 μM Fluorescein-Ub, 100 nM E1, and 1 μM UbcH5c. ATP (20 mM) was added last to initiate the reaction. The reaction was incubated on a thermomixer (1,300 rpm; Eppendorf) at 37° C. for 5 min. The resulting beads were then added with a second reaction mixture (5 μl) containing 50 mM Tris-HCl (pH7.4), 0.5 mM DTT, 0.1 mg/ml of BSA, 5 mM MgCl2, 4 μM I-Ub-Q31C/K48R, and 1 μM Cdc34b, in the presence or absence of E3 inhibitors as specified. The reaction was incubated on a thermomixer at 37° C. for times as indicated. The concentrations of enzymes, Ubs, and compounds stated above were adjusted based on a final volume of 15 μl. The beads were then washed using conditions as described above. Materials eluted from the beads were separated by 4-20% SDS-PAGE followed by detection with fluorescence scanning (Typhoon 9500) or immunoblot using anti-CK1α antibody (Abcam). […]

ROC1-CUL1 CTD [1] = target: T1, ROC1-CUL1 CTD (Homo sapiens (Human), UniProt Q13616); test: Ligand binding by MST
Method: (§1) E3 ligase complex (˜2 nmol) was labeled with fluorescent dye using Monolith NT Protein Labeling Kit Red-NHS (Nanotemper) in the presence of 20 mM MES pH 6.0 and 150 mM NaCl. Excess dye was removed using the included gravity flow column and eluted in storage buffer containing 20 mM Tris-HCl, pH 7.4, 150 mM NaCl, and 10% glycerol. The fluorescent E3 complex (˜0.01-0.06 μM) was mixed with increasing amount of compound in a buffer (20 μl) that contains phosphate-buffered saline, 0.1% TWEEN-20 and 2% prionex. Following incubation at room temperature for 30 min, the reaction mixture loaded into premium coated capillaries and analyzed in the Monolith NT.115 machine (Nanotemper). Thermophoresis was recorded for each sample and binding curve was generated and Kd was calculated using the included software. For reactions where significant ligand specific fluorescence quenching occurred (verified by manufacturer's SDS Denaturation-test protocol), the initial fluorescence quenching data was used directly to calculate the binding curve and Kd.

ROC1-CUL1 CTD [2] = target: T1, ROC1-CUL1 CTD; test: FRET K48 di-Ub synthesis assay; format: biochemical
Method: The high throughput screen (“HTS”) employed the FRET K48 di-Ub assay as established previously (Wu et al., “Suramin Inhibits Cullin-RING E3 Ubiquitin Ligases,” PNAS 113(14):E2011-2018 (2016), which is hereby incorporated by reference in its entirety) and was carried out at Memorial Sloan Kettering Cancer Center Core Screening Facility. For HTS, the assay was formatted using three reagent addition steps. Library compounds, stored in 10 mM stock plates (DMSO), were transferred into assay plates and each well contains a single compound at 100 μM in 1 μl 10% DMSO. The complete complement of proteins/enzymes (6.5 μl), containing Ub E1 (14 nM), E2 Cdc34 (124 nM), E3 ROC1-CUL1 CTD (0.2 μM), Ub C31-I555 (donor, 0.93 μM), and Ub C64-I647 (receptor, 1.62 μM), in the presence of 33 mM Tris-HCl (pH 7.4), 1.7 mM MgCl2, 0.33 mM DTT, and BSA (0.07 mg/ml), was added to each plate. The concentrations of all five proteins have been determined based on Km measurement as described previously (Wu et al., “Suramin Inhibits Cullin-RING E3 Ubiquitin Ligases,” PNAS 113(14):E2011-2018 (2016), which is hereby incorporated by reference in its entirety). To initiate ubiquitination, ATP (2.5 μl in 2.64 mM) was added and its final concentration was 0.66 mM. The concentration of ATP was set high to minimize identification of nucleotide analogues because the priority of the HTS is to find small molecule modulators specific for E3 ROC1-CUL1 CTD. In this setting, the concentration of compound and DMSO in a given well were 10 μM and 1%, respectively. After incubation at room temperature for 45 min, EDTA (30 mM) was added to terminate the reaction. The reaction was quantified based on the ratio of acceptor:donor fluorescence (excitation 515 nm; donor emission 570 nm; acceptor emission 670 nm) using a Victor high-throughput plate reader (Perkin Elmer).
(§2) The reaction mixture (15 μl) was assembled onto a 384-well microtiter plate. […] ATP (0.66 mM) was then added to the mix followed by a brief centrifugation to settle down the mixture. The resulting plate was incubated at 30° C. in the Synergy-H1 reader and the fluorescence signal was monitored. Ubiquitination was quantified based on the ratio of acceptor:donor fluorescence (excitation 515 nm; donor emission 570 nm, acceptor emission 670 nm).

ROC1-CUL4A = ROC1-CUL4A (Homo sapiens (Human), UniProt Q13619); test: 32P-Ub chain elongation by ROC1-CUL4A; format: biochemical; design: concentration or dose not given beside the values; conditions: relative to KH-4-43
Method: (§3) The reaction was incubated for 5 min at 37° C. […] The reaction was incubated for 5 min at room temperature. In the second step (chase), the completed Cdc34b-Ub thiol ester reaction mixture was combined with one third of the completed mono-ubiquitination mixture. The final volume was adjusted to 10 μl with a mix that contained 50 mM Tris-HCl (pH 7.4), 0.5 mM DTT, 0.1 mg/ml of BSA, 5 mM MgCl2, and 2 mM ATP. Compounds were added where indicated. The chase reaction was incubated for 10 min at 37° C. The reaction products were separated by 4-20% SDS-polyacrylamide gel electrophoresis. The reaction scheme was identical to the one described above for FIGS. 12A-B. […] The reaction products, separated by SDS-PAGE, were visualized and analyzed by phospho-imaging using Typhoon 9500 scanner.

ROC1-CUL4A (full length) = ROC1-CUL4A (full length) (Homo sapiens (Human), UniProt Q13619); test: Ligand binding by MST; conditions: for Kd: read-out: E3 binding ROC1-CUL4A Kd
Method: as §1

cancer cells = test: Apoptosis, Annexin V flow cytometry; format: cell-based; conditions: for induction of apoptosis: at 30 μM
Method: Cells (5×10^4) were seeded 24 hours before compound treatment. Compound was added to the culture media and cells were cultured with the compound for 48 hours. The treated cells were then transferred into 5 ml flow cytometry tubes and the well was washed once with PBS to collect any remaining cells. The cells were then pelleted at 500×g for 5 min with a Beckman CS-6KR centrifuge at 4° C. After removal of supernatant, the cells pellet was washed with Annexin V binding buffer (10 mM Hepes-NaOH, pH 7.4, 150 mM NaCl, 5 mM KCl, 1 mM MgCl2, and 1.8 mM CaCl2). Cells were pelleted once again and incubated in the dark with Annexin V-FITC (2 μg/ml) in binding buffer for 5 min then analyzed using LSRFortessa flow cytometer (BD).

E3 (CUL4) = E3 (CUL4) (Homo sapiens (Human), UniProt Q13619); test: E3 (CUL4) inhibition (Table 1); format: biochemical
Method: as §3

E3 (CUL1) = E3 (CUL1) (Homo sapiens (Human), UniProt Q13616); test: E3 (CUL1) inhibition (Table 1); format: biochemical
Method: as §2

MV4-11 tumors = test: AML MV4-11 subcutaneous xenograft; conditions: G5, 3 mg/kg, QD, PO
ROC1-CUL1 CTD [3] = target: T1, ROC1-CUL1 CTD; test: FRET K48 di-Ub synthesis assay; format: biochemical; conditions: HTS screening conditions, read-out: inhibition of the reaction
[4] = Table 5, MST, read-out: E3 binding Kd

T1 sequence (Q13616 411-776): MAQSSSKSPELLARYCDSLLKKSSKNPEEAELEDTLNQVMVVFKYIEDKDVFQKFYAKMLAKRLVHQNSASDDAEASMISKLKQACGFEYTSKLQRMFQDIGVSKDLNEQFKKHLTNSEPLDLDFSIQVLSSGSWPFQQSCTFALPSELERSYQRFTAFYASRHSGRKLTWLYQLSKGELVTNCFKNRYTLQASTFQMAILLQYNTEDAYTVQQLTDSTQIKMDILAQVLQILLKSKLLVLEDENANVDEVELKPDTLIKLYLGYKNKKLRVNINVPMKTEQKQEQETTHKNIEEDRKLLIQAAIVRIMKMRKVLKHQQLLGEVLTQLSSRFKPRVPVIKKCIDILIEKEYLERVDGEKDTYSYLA
T1 sequence (P62877 whole entry partner): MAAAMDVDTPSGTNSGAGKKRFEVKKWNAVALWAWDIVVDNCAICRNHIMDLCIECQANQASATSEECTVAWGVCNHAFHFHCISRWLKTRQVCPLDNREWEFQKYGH
Sequence of ROC1-CUL4A (full length) (Q13619 39-759): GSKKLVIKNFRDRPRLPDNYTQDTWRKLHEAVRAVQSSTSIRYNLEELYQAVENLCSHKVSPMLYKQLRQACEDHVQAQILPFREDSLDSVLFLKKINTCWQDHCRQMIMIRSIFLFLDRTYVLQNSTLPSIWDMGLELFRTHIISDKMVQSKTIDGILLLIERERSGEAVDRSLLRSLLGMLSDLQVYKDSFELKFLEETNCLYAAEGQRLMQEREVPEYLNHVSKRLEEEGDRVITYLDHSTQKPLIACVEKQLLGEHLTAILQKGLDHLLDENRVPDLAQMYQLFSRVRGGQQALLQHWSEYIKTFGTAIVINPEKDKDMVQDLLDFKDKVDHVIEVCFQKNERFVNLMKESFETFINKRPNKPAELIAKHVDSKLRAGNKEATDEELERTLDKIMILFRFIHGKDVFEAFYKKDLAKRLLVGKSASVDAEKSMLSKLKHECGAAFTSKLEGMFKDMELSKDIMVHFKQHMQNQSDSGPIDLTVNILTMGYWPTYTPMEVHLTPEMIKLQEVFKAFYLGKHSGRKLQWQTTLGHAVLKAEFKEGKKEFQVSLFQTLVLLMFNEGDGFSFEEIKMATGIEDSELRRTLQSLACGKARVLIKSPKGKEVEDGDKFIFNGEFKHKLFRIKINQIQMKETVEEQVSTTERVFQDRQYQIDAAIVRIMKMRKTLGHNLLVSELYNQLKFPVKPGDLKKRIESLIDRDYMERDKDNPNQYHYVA
Sequence of ROC1-CUL4A (full length) (P62877 15-108 partner): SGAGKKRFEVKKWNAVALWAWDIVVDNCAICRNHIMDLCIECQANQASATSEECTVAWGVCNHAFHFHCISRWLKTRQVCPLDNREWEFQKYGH
Sequence of ROC1-CUL4A (Q13619 39-759): as the sequence (Q13619 39-759) above
Sequence of ROC1-CUL4A (P62877 15-108 partner): as the sequence (P62877 15-108 partner) above
Sequence of E3 (CUL4) (Q13619 whole entry): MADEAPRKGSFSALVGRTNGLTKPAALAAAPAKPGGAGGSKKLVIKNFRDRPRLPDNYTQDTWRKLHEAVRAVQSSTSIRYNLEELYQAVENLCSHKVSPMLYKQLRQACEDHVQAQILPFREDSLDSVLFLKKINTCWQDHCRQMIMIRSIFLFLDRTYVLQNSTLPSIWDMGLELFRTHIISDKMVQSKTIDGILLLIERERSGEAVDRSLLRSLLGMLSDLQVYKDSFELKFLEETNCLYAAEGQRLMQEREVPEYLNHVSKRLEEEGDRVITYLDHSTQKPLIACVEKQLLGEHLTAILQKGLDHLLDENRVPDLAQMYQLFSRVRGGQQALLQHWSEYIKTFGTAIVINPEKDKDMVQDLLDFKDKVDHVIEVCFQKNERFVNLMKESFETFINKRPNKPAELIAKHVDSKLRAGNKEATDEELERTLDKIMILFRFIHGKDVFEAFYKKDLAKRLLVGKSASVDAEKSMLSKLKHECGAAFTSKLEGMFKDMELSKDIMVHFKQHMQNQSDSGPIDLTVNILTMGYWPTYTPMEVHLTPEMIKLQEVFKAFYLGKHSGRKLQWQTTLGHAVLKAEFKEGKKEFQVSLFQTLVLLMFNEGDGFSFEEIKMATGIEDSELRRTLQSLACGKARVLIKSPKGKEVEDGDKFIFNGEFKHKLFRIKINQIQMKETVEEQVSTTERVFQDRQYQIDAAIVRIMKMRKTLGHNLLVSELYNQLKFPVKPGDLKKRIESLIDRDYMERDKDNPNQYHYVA
Sequence of E3 (CUL4) (P62877 whole entry partner): as the sequence (P62877 whole entry partner) above
Sequence of E3 (CUL1) (Q13616 whole entry): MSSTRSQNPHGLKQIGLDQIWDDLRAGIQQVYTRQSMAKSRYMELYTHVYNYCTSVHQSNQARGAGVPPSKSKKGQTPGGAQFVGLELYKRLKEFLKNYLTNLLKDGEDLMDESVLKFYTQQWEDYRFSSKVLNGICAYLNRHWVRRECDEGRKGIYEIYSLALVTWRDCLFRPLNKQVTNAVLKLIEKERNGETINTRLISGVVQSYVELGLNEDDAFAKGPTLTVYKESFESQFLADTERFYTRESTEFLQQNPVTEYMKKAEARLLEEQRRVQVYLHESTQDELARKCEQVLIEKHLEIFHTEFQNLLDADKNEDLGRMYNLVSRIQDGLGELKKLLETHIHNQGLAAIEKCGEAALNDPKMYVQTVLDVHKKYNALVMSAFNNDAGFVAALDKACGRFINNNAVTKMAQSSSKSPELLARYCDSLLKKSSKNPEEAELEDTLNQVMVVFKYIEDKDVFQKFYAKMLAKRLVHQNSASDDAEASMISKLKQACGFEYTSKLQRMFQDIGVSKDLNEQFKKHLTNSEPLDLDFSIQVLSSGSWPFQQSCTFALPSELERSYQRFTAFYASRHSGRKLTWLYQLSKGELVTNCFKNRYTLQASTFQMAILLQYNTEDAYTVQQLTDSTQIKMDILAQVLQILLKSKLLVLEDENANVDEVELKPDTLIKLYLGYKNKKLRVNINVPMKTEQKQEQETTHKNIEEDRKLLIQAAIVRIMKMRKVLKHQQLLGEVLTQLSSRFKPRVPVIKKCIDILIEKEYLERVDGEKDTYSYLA
Sequence of E3 (CUL1) (P62877 whole entry partner): as the sequence (P62877 whole entry partner) above
Sequence of ROC1-CUL1 (Q13616 whole entry): as the sequence (Q13616 whole entry) above
Sequence of ROC1-CUL1 (P62877 whole entry partner): as the sequence (P62877 whole entry partner) above
Sequence of E3 CRL4^CRBN (Q13619 whole entry): as the sequence (Q13619 whole entry) above
Sequence of E3 CRL4^CRBN (P62877 whole entry partner): as the sequence (P62877 whole entry partner) above
Sequence of E3 CRL4^CRBN (Q16531 whole entry partner): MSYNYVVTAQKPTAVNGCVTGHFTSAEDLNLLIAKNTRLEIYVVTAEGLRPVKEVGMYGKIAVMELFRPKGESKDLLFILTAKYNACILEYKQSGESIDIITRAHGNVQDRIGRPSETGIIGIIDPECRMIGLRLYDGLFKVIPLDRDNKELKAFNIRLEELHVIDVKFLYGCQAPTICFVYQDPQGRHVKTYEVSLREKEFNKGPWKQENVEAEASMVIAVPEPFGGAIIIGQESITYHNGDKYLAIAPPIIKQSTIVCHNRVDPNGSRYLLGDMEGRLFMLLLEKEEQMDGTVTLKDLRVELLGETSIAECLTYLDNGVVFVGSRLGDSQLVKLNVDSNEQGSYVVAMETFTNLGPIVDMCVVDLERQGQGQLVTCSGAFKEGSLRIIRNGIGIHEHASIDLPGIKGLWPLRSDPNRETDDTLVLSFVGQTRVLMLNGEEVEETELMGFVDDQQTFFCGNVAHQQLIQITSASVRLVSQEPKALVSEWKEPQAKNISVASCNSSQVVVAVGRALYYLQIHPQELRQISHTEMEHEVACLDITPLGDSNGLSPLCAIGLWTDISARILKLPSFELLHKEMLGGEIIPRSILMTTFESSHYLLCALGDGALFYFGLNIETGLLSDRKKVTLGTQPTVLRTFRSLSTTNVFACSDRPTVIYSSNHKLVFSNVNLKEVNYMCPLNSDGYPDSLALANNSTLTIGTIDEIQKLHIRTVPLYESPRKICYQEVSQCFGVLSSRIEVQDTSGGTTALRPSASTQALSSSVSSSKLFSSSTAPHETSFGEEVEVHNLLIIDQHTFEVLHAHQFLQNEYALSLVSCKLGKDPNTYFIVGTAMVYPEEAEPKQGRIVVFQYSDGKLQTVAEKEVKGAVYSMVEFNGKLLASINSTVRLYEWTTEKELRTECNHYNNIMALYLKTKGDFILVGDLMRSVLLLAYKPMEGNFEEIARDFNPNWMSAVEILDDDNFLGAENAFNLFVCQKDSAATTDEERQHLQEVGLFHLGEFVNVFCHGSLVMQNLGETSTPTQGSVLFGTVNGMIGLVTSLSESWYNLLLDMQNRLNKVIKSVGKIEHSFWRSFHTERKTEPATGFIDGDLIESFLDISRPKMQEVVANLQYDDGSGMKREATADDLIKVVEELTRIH
Sequence of E3 CRL4^CRBN (Q96SW2 whole entry partner): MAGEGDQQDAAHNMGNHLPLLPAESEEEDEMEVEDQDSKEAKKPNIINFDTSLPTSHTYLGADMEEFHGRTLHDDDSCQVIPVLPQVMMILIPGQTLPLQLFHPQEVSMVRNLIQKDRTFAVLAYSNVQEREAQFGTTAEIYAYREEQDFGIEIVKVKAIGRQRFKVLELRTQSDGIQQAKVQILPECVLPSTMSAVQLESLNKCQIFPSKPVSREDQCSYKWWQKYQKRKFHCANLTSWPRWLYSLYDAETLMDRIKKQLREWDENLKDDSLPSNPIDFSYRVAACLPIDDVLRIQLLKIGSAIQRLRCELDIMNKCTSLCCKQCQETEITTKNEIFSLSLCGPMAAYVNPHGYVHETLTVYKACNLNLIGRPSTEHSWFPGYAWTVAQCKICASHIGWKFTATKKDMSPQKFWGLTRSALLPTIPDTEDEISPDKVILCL

Structure (SMILES): O=c1c(Oc2ccccc2)c(C(F)(F)F)oc2c(O)c(O)ccc12 [#33, 7,8-dihydroxy-3-phenoxy-2-(trifluoromethyl)-4H-chromen-4-one]
discharge of Cdc34-Ub and production of Ub2 by ROC1-CUL1 (ROC1-CUL1): showed inhibition | inhibition of ubiquitination of CK1α (E3 CRL4^CRBN): Significant inhibitory effects | Kd (ROC1-CUL1 CTD [1]; [4]): 1.84 µM

Structure (SMILES): COc1ccc2c(=O)c(-c3cnn(-c4ccc(F)cc4)c3)c(C(F)(F)F)oc2c1OC [KH-3-141]
E3 CRL4 Relative Inhibition (ROC1-CUL4A): 0% | E3 binding ROC1-CUL4A Kd (ROC1-CUL4A (full length)): No detectable binding | Apoptosis EC50 (cancer cells; Table 1): Inactive | Apoptosis EC50 (cancer cells; Table 6): Inactive | induction of apoptosis (cancer cells): unable to induce any detectable level of apoptosis | E3 (CUL4) Inhibition EC50 (E3 (CUL4)): Inactive | E3 (CUL1) Inhibition EC50 (E3 (CUL1)): Inactive

Structure (SMILES): COc1c(O)ccc2c(=O)c(-c3cnn(-c4ccccc4)c3)c(C(F)(F)F)oc12 [KH-4-119]
E3 CRL4 Relative Inhibition (ROC1-CUL4A): 13% | E3 binding ROC1-CUL4A Kd (ROC1-CUL4A (full length)): no detectable binding activity | Apoptosis EC50 (cancer cells; Table 1): Inactive | Apoptosis EC50 (cancer cells; Table 6): Inactive | induction of apoptosis (cancer cells): unable to induce any detectable level of apoptosis | E3 (CUL4) Inhibition EC50 (E3 (CUL4)): Inactive

Structure (SMILES): CNC(=O)c1cc(Oc2ccc(NC(=O)Nc3ccc(Cl)c(C(F)(F)F)c3)cc2)ccn1 [Sorafenib, reference compound]
tumor inhibition value (MV4-11 tumors): 46.02%

Structure (SMILES): Cc1ccc(C(=O)Nc2ccc(S(=O)(=O)O)c3cc(S(=O)(=O)O)cc(S(=O)(=O)O)c23)cc1NC(=O)c1cccc(NC(=O)Nc2cccc(C(=O)Nc3cc(C(=O)Nc4ccc(S(=O)(=O)O)c5cc(S(=O)(=O)O)cc(S(=O)(=O)O)c45)ccc3C)c2)c1 [Suramin, suramin]
inhibition at 0.8 µM (ROC1-CUL1 CTD [3]; 0.8 μM): 50% | inhibition at 5 µM (ROC1-CUL1 CTD [3]; 5 μM): 100%

Structure (SMILES): O=c1c(Oc2ccccc2)c(C(F)(F)F)oc2c(O)c(O)c(Br)cc12 [drawing 256]
Kd (ROC1-CUL1 CTD [1]; Table 9, read-out: E3 Binding Kd (MST with CUL1 CTD)): 1.89 ± 0.96 µM | IC50 (ROC1-CUL1 CTD [2]; Table 9, read-out: IC50 (FRET CUL1 assay)): 3.1 µM

The remaining lines, values ahead:

Kd (ROC1-CUL1 CTD [1]; [4]): 19 µM | IC50 (ROC1-CUL1 CTD [2]; Table 5, read-out: E3 inhibition IC50): 80 µM
Structure (SMILES): O=c1c(Oc2ccccc2)c(C(F)(F)F)oc2c3c(ccc12)OCO3 [Compound 33-4, 7-phenoxy-8-(trifluoromethyl)-6H-[1,3]dioxolo[4,5-h]chromen-6-one]

E3 CRL4 Relative Inhibition (ROC1-CUL4A): 2% | Kd (ROC1-CUL4A (full length)): 38 µM | EC50 (cancer cells; Table 6): 28 µM
Structure (SMILES): CCCCn1cc(-c2c(C(F)(F)F)oc3c(O)c(O)ccc3c2=O)cn1 [MM-007]

E3 CRL4 Relative Inhibition (ROC1-CUL4A): 0% | Kd (ROC1-CUL4A (full length)): 26.4 µM | EC50 (cancer cells; Table 6): 38 µM
Structure (SMILES): CCCn1cc(-c2c(C(F)(F)F)oc3c(O)c(O)ccc3c2=O)cn1 [MM-008]

E3 CRL4 Relative Inhibition (ROC1-CUL4A): 0% | Kd (ROC1-CUL4A (full length)): > 400 µM | EC50 (cancer cells; Table 6): 66 µM
Structure (SMILES): CCn1cc(-c2c(C(F)(F)F)oc3c(O)c(O)ccc3c2=O)cn1 [MM-009]
